Assay results published in patent US20250041377A1, “PHARMACEUTICAL USE” (ENLITISA (SHANGHAI) PHARMACEUTICAL CO., LTD., priority 2018, published 2025).
Where a SMILES comes first, the peptide text is derived from it. [ ]: non-standard residue; d: D form. Hyp = O=C(O)[CH]1C[CH](O)CN1

Key:
[1] = system: TNF-α, IL-6 and IL-1B in exudate; assay: Air pouch model, ELISA of exudate; assay type: in vivo, C57BL/6 mice; details: 300 μg/mouse into air pouch; FIG. 1
Procedure: Healthy adult male C57BL/6 mice weighing between 20 and 30 g were supplied by Nanjing Biomedicial Research Institute of Nanjing University (NBRI). Prior to any experiments being conducted, mice were housed under standardized conditions (at a constant temperature of 22±2° C., with alternating 12 hour periods of light and darkness), and were fed on a standard mouse diet with water, for about a week.
General anesthesia was induced using intraperitoneal 3% chloral hydrate (Sinopharm Chemical Reagent Co., Ltd., Shanghai, China; 1 mL/10 g of body weight). The hair of the entire dorsum was shaved and depilated 1 day before sterile air injection.
Air pouches were produced by subcutaneous injection of sterile air (5 mL) into the intrascapular area of the mice. After three days, another injection of air (3 mL) was performed to maintain the pouches. […]
Exudates were collected and volumes were quantified. The exudates were centrifuged at 3000 rpm for 10 minutes at 4° C., and the supernatants were collected and stored at −20° C. for ELISA analysis using standard ELISA test kits from Beijing 4A Biotech Co., Ltd. (Beijing) and an ELISA reader (SH-1000 Hitachi, Japan) for […] (TNF-α), interleukin 1 beta (IL-1B), interleukin 6 (IL-6). […]

ammonia induced cough = assay: Antitussive experiment, ammonia induced cough method; assay type: in vivo, ICR mice
Procedure: 36 ICR mice were randomly divided into 3 groups according to their body weight, labelled a CMC-Na (Negative) control group, a dextromethorphan hydrobromide (Positive) control group and a Compound B (B) group. Each group contained 12 mice, with 6 males and 6 females in each.
Compound B was administered via atomization inhalation using a YLS-8A Multifunctional cough and sputum inducing device (Jinan Yiyan Science and Technology Co., Ltd.) (0.15 ml/min) for 1 minute, once daily for 5 days. And the positive control drug was administered once daily by intragastric administration at 10 mg/kg for 5 days.
The mice were placed in an inverted beaker 1, 2, and 4 hours after the last drug administration. 1 mL of aqueous ammonia (25.0 to 28.0%) was placed on top of a boiling water bath and was evaporated into the beaker.
The time for mice to receive ammonia exposure was determined by a method characterized by analyzing data immediately after one test or a batch of tests. The results of the previous analysis determined how to conduct the next test or batch of tests.
The difference between the logarithmic value of two adjacent time periods was 0.1.
The number of coughs within 1 minute was detected using a stethoscope. If a mouse coughed three or more times over one minute, this was labelled as called ‘cough’, and less than three times in one minute was labelled ‘cough free’.
The EDT50 was defined as the ammonia stimulating time at which half mice developed a “cough”, calculated by the equation: […]
(c equals the sum of r and x, r is the number of animals in each stimulating time group, x is the logarithm of stimulation time and n was the number of animals in each group). lg is a base 10 logarithmic value.
In Table 15, R is the EDT50 in treatment group divided by the EDT50 in the Control group expressed as a percentage.

fever = assay: Aerosol inhalation to treat fever; assay type: in vivo, human
Procedure: The same formulation as described in Example 14 above was administered to a subject who enrolled in the study having had got a fever (a body temperature over 38.5° C.) for 1 day. Other anti-fever medications were not used prior to treatment.
The subject was required to use the aerosol inhalation device in the morning and in the evening by pouring 3 mL of the formulation into an atomizer storage tank connected to an atomizer and a mask, which was worn over the mouth and nose.

[2] = system: bleomycin-induced pulmonary fibrosis; assay: Idiopathic pulmonary fibrosis (IPF) model; assay type: in vivo, Sprague Dawley rats; parameters: lung coefficient: unit not given here
Procedure: Experimental animals and grouping: 40 adult male Sprague Dawley rats, after 7 days of adaptive feeding, were divided into 4 groups: sham-operation group (Sham), IPF model group (no treatment; Model), test group (Compound B) and positive control group (Positive Control).
The test were administered Compound B, at a dose of 130 μg/rat, which was introduced by aerosolized inhalation. Oral administration of pirfenidone (Etuary®, Beijing Continent Pharmaceutical Co., Ltd., Beijing, China) as a 120 mg/kg single-bolus dose served as the positive control.
A pulmonary fibrosis model was established by intratracheal instillation of bleomycin. The rats were anaesthetised and placed on an operating table in the supine position, to expose the trachea. Bleomycin (5 mg/kg) saline solution was injected into the trachea through the gap between the tracheal cartilage rings. The sham-operation group were given an equal volume of normal saline. Shortly after administration, the rats were lifted vertically and were rotated, in order to evenly disperse the drug. Once the rats had recovered, after approximately 5 days, they were administrated the different drugs according to the plan for 28 days, consecutively.
The exhaust volume of the atomizing device was 0.15 mL per minute. The inhalation time for each rat was 1 minute.
At Day 29 following drug administration, rats were anesthetized by i.p. injection of chloral hydrate. After orbital blood collection, the rats were sacrificed. The thoracic cavity was quickly opened and the lung was collected for further analysis. The lung wet weight was measured, and the lung coefficient was calculated (lung wet weight/rat weight×1000). The tissue was stored in refrigerator at −80° C. for further use.
A piece of lung tissue was accurately weighed, and 9 times the weight of saline was added. Then, the tissue was homogenized and centrifuged for 10 minutes at 3000 rpm. The homogenate was used to detect the expression of the transformation growth factor (TGF-β1), tumor necrosis factor-α (TNF-α) and alpha-smooth muscle actin (α-SMA). Standard ELISA methods were used for the detection. The contents of malonaldehyde (MDA) and the activity of superoxide dismutase (SOD) in lung tissue were also detected.

[3] = lung tissue homogenate, Day 29, Compound B 130 μg/rat aerosolized inhalation, pirfenidone gavage, 28 days

## CC(N)C(=O)NC(CCCCN)C(=O)N1CCCC1C(=O)NC(CO)C(=O)NC(Cc1ccc(O)cc1)C(=O)N1CC(O)CC1C(=O)N1CC(O)CC1C(=O)NC(C(=O)NC(Cc1ccc(O)cc1)C(=O)NC(CCCCN)C(=O)O)C(C)O (stereo not drawn) [Compound B, Ala-Lys-Pro-Ser-Tyr-Hyp-Hyp-Thr-Tyr-Lys] (H-AKPSY[Hyp][Hyp]TYK-OH; configuration not given here)
[1]
  ELISA test results of the exudate for TNF-α, IL-6 and IL-1B: very strong anti-inflammatory effects
Ammonia induced cough; 1 hour after admin., EDT50 in treatment group divided by EDT50 in Control group
  R: 131.7%
Ammonia induced cough; 1 hour after last administration, B 195 μg/mouse atomization inhalation, Positive 10 mg/kg intragastric, once daily 5 days
  EDT50: 28.2 s
Ammonia induced cough; 2 hours after admin., EDT50 treatment/Control
  R: 131.8%
Ammonia induced cough; 2 hours after last administration
  EDT50: 28.2 s
Ammonia induced cough; 4 hours after admin., EDT50 treatment/Control
  R: 100 [???] %
Ammonia induced cough; 4 hours after last administration
  EDT50: 26.9 s
Ammonia induced cough; at 1 and 2 hours
  effect on cough relief: positive effect on cough relief
fever; 0.5 mg/mL aerosol inhalation, morning and evening
  recurrence of fever symptoms: did not recur after 3 uses
fever; 0.5 mg/mL, 3 mL aerosol inhalation, subject with body temperature over 38.5° C.
  body temperature: within two hours, their body temperature had dropped to normal
[2]; compared with pirfenidone
  inhibition of production of TNF-α, α-SMA and TGF-β1 in lung tissue: almost equivalent to that of the known IPF drug, pirfenidone
[2]; [3]
  TGF-β1: 0.40 ± 0.02 ng/mg protein
  TNF-α: 187.91 ± 12.20 pg/mg protein
  α-SMA: 10.85 ± 1.42 pg/mg protein
[2]; lung tissue, Day 29
  MDA: 0.17 ± 0.04 U/mg protein
  SOD: 48.64 ± 1.85 U/mg protein
[2]; lung wet weight/rat weight×1000, Day 29
  lung coefficient: 5.14 ± 0.37
